According to patent US20220170949A1, “SYSTEM AND METHOD FOR DETECTING THERAPEUTIC AGENTS TO MONITOR ADHERENCE TO A TREATMENT REGIMEN” (ORASURE TECHNOLOGIES, INC., priority 2019, published 2022):
Where two headings read alike, the source gives them in different places.

How the values were obtained:
HIV = conditions: PBMCs (Anderson 2012); cited from earlier work
HIV-1 = conditions: cited from earlier work
[1] = in vivo, po
Text: Antiretroviral concentrations in whole blood or plasma are potentially useful in monitoring adherence to PrEP.

[2] = in vivo; cited from earlier work

Row | Structure (SMILES) | intracellular concentration associated with a 90% reduction in HIV acquisition relative to the placebo arm (HIV) | HIV-1 risk reduction corresponding to intracellular tenofovir concentrations (HIV-1; 2 doses per week) [%] | HIV-1 risk reduction corresponding to intracellular tenofovir concentrations (HIV-1; 4 doses per week) [%] | HIV-1 risk reduction corresponding to intracellular tenofovir concentrations (HIV-1; 7 doses per week) [%] | window of medication usage reflected by TFV detection in whole blood or plasma [1] | intracellular half-life [2] [h] | plasma half-life [2] [h]
1 | CC(Cn1cnc2c(N)ncnc21)OCP(=O)(O)OP(=O)(O)OP(=O)(O)O (stereo in doubt) [tenofovir-diphosphate] | 16 fmol per million peripheral blood mononuclear cells (PBMCs) | – | – | – | – | – | –
2 | C[C@H](Cn1cnc2c(N)ncnc21)OCP(=O)(O)O [Tenofovir] | – | 76 | 96 | 99 | one to at least seven days | 150 | 17
